Test results from ChEMBL document CHEMBL3785073, “Antiviral Indolosesquiterpenoid Xiamycins C-E from a Halophilic Actinomycete” (J Nat Prod, 2016).
Activity calls are given as the source filed them. The calls are words filed in the database; no cut-off is given here.

Columns and labels:
[1] = tested on: Porcine epidemic diarrhea virus; assay: Antiviral activity against PEDV infected in African green monkey Vero cells assessed as suppression of GP6 neucleocapsid protein expression at 10 uM after 24 hrs by FITC-based immunofluorescence assay; assay type: functional, cell-based
[2] = Selectivity index, ratio of CC50 for African green monkey Vero cells to EC50 for PEDV infected in African green monkey Vero cells
[3] = tested on: Porcine epidemic diarrhea virus; assay: Antiviral activity against PEDV infected in African green monkey Vero cells assessed as reduction in virus-induced cytopathic effect after 72 hrs by MTT assay; assay type: functional, cell-based
[4] = Cytotoxicity against African green monkey Vero cells after 48 hrs by MTT assay; assay type: cell-based; details: chlorocebus sabaeus
[5] = tested on: Porcine epidemic diarrhea virus; assay: Antiviral activity against PEDV infected in African green monkey Vero cells assessed as suppression of GP2 spike protein expression at 5 uM after 24 hrs by Western blot analysis; assay type: functional, cell-based
[6] = tested on: Porcine epidemic diarrhea virus; assay: Antiviral activity against PEDV infected in African green monkey Vero cells assessed as suppression of GP6 neucleocapsid protein expression after 24 hrs by FITC-based immunofluorescence assay; assay type: functional, cell-based
[7] = tested on: Porcine epidemic diarrhea virus; assay: Antiviral activity against PEDV infected in African green monkey Vero cells assessed as suppression of GP2 spike protein expression after 24 hrs by Western blot analysis; assay type: functional, cell-based
[8] = tested on: Porcine epidemic diarrhea virus; assay: Antiviral activity against PEDV infected in African green monkey Vero cells assessed as suppression of GP6 neucleocapsid protein expression after 24 hrs by Western blot analysis; assay type: functional, cell-based
[9] = tested on: Porcine epidemic diarrhea virus; assay: Antiviral activity against PEDV infected in African green monkey Vero cells assessed as suppression of GP5 neucleocapsid protein mRNA level after 24 hrs by RT-PCR analysis; assay type: functional, cell-based
[10] = tested on: Porcine epidemic diarrhea virus; assay: Antiviral activity against PEDV infected in African green monkey Vero cells assessed as suppression of GP6 neucleocapsid protein mRNA level after 24 hrs by RT-PCR analysis; assay type: functional, cell-based
[11] = tested on: Porcine epidemic diarrhea virus; assay: Antiviral activity against PEDV infected in African green monkey Vero cells assessed as suppression of GP2 spike protein mRNA level after 24 hrs by RT-PCR analysis; assay type: functional, cell-based

SMILES | Activity [1] | Ratio CC50/EC50 [2] | EC50 [3] | CC50 at 48 h [4] | Activity [5] | Activity [6] | Activity [7] | Activity [8] | Activity [9] | Activity [10] | Activity [11]
O=c1cnn([C@@H]2O[C@H](CO)[C@@H](O)[C@H]2O)c(=O)[nH]1 [6-AZAURIDINE] | Active | 12.7 | 4.48 µM | 57.3 µM | Active | – | – | – | – | – | –
C[C@@]1(C(=O)O)[C@@H](O)CC[C@]2(C)c3cc4c([nH]c5ccccc54)c(Cl)c3CC[C@@H]12 | – | 12.89 | 12.8 µM | 162 µM | – | – | – | – | – | – | –
C[C@@]1(C(=O)O)[C@@H](O)CC[C@]2(C)c3cc4c(cc3[C@@H](O)C[C@@H]12)[nH]c1ccccc14 | – | 6.75 | 11.5 µM | 76.9 µM | – | – | – | – | – | – | –
COC(=O)[C@]1(C)[C@@H](O)CC[C@]2(C)c3cc4c(cc3CC[C@@H]12)[nH]c1ccccc14 | – | 18.09 | 5.69 µM | 103 µM | – | – | – | – | – | – | –
COC(=O)[C@]1(C)[C@@H](O)CC[C@]2(C)c3cc4c(cc3[C@@H](O)C[C@@H]12)[nH]c1ccccc14 | – | 60.31 | 0.93 µM | 56 µM | Dose-dependent effect | Dose-dependent effect | Dose-dependent effect | Dose-dependent effect | Dose-dependent effect | Dose-dependent effect | Dose-dependent effect
COC(=O)[C@]1(C)[C@@H](O)CC[C@]2(C)c3cc4c(cc3C(=O)C[C@@H]12)[nH]c1ccccc14 | – | 34.63 | 2.89 µM | 98.7 µM | Active | – | – | – | – | – | Active
C[C@@]1(C(=O)O)[C@@H](O)CC[C@]2(C)c3cc4c(cc3CC[C@@H]12)[nH]c1ccccc14 [XIAMYCIN] | – | 7 | 20.1 µM | 138 µM | – | – | – | – | – | – | –
